What was measured:
CbrR = molecular target: T1, CbrR (Campylobacter jejuni, UniProt Q0PAM5); assay: DRaCALA on nitrocellulose; format: binding; details: 10 mM Tris-HCl pH 8, 100 mM NaCl, 5 mM MgCl2
T1 construct: codon 2 to penultimate codon, C-terminal Myc-6xHis tag kept, pBAD/myc-HisA (pDAR6203), E. coli Top10

WspR [1] = molecular target: T2, WspR (Pseudomonas aeruginosa, UniProt Q9HXT9); assay: DRaCALA on nitrocellulose; format: biochemical; details: labelled compound ([32P]c-di-GMP made by WspR); 10 mM Tris-HCl pH 8, 100 mM NaCl, 5 mM MgCl2
T2 construct: codon 2 to penultimate codon, from pVL791, C-terminal Myc-6xHis tag kept, pBAD/myc-HisA (pDAR6535), E. coli Top10
T2 sequence (Q9HXT9 entry or part of it): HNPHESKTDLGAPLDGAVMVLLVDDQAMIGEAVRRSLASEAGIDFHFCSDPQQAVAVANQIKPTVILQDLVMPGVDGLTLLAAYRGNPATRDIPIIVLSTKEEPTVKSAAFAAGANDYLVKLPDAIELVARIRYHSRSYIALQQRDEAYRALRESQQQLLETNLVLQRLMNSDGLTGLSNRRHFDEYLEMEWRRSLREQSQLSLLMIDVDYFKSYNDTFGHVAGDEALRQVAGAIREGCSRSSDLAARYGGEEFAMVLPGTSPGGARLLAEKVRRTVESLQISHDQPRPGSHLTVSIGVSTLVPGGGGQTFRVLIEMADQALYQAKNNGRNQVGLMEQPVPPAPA

WspR [2] = molecular target: T2, WspR; assay: DRaCALA on nitrocellulose; also TLC of c-di-GMP synthesis; format: biochemical; details: labelled compound ([alpha-32P]GTP); 10 mM Tris-HCl pH 8, 100 mM NaCl, 5 mM MgCl2 (DRaCALA); 10 mM MgCl2, room temperature (TLC)

T1 sequence (Q0PAM5 entry or part of it): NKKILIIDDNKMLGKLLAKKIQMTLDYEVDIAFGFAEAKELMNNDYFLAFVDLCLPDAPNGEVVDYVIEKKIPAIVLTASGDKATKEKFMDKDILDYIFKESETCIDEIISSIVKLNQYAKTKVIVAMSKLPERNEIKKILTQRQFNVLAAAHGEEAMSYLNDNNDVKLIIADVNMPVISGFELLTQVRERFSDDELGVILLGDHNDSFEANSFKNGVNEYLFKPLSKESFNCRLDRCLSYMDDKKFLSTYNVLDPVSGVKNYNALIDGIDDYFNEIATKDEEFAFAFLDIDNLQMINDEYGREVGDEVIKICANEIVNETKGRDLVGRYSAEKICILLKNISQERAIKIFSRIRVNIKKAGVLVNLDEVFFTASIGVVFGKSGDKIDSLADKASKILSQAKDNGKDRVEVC

| SMILES | DRaCALA on nitrocellulose (CbrR; labelled compound ([32P]c-di-GMP made by WspR)) | DRaCALA on nitrocellulose (WspR [1]) | DRaCALA on nitrocellulose; also TLC of c-di-GMP synthesis (WspR [2]) | DRaCALA on nitrocellulose (CbrR; labelled compound ([alpha-32P]GTP)) |
| --- | --- | --- | --- | --- |
| Nc1nc2c(ncn2[C@@H]2O[C@@H]3COP(=O)(O)O[C@H]4[C@@H](O)[C@H](n5cnc6c(=O)[nH]c(N)nc65)O[C@@H]4COP(=O)(O)O[C@H]3[C@H]2O)c(=O)[nH]1 [c-di-GMP] | recombinant WspR and CbrR bound both GTP and c-di-GMP, but VidA and VidB did not | recombinant WspR and CbrR bound both GTP and c-di-GMP, but VidA and VidB did not | – | – |
| Nc1nc2c(ncn2[C@@H]2O[C@H](COP(=O)(O)OP(=O)(O)OP(=O)(O)O)[C@@H](O)[C@H]2O)c(=O)[nH]1 [GTP] | – | – | recombinant WspR and CbrR bound both GTP and c-di-GMP, but VidA and VidB did not | recombinant WspR and CbrR bound both GTP and c-di-GMP, but VidA and VidB did not |

— PMC10790790, “Viscosity-dependent determinants of Campylobacter jejuni impacting the velocity of flagellar motility” (mBio, 2023)
